Source: ChEMBL document CHEMBL1201862, “PubChem BioAssay data set” (2004)
Activity calls are given as the source filed them.

How the values were obtained:
Vero = assay: host cell viability loss, Vero E6 – synthesized analogs, cytotoxicity control for West Nile virus antiviral project, SAR follow-up (AID 2244); type: functional; conditions: Chlorocebus sabaeus
[1] = Trypanosoma cruzi growth suppression in host cells – NIH3T3 host cells, beta-gal luminescence, confirmation (AID 2044); type: functional, cell-based;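 note: intracellular parasites grown in NIH/3T3 mouse fibroblasts as host cells; luminescent beta-galactosidase reporter signal from transgenic T. cruzi replicating inside host cells; inhibitors lower the luminescence signal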
[2] = NIH3T3 cell viability loss – ATP luminescence, mouse fibroblasts, counter-screen, dose response (AID 2010); type: functional, cell-based;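 note: cells exposed to compound for about 90 hours before reading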
HEK293 [3] = assay: cells; conditions: Homo sapiens
[4] = target: Voltage-dependent T-type calcium channel subunit alpha-1H (Homo sapiens, UniProt O95180); type: functional;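 note: channel activity triggered by adding a high calcium stimulation buffer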
HEK293 [5] = assay: cells; conditions: Homo sapiens; remark: listed apart in the source
Cytochrome P450 2C19 = Cytochrome P450 2C19 (Homo sapiens, UniProt P33261); assay: Cytochrome panel assay with activity outcomes. Panel member name: p450-cyp2c19 Compounds with AC50 equal or less than 10 uM are considered active; type: functional; conditions: read-out: AC50
Cytochrome P450 2D6 = Cytochrome P450 2D6 (Homo sapiens, UniProt P10635);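 note: CYP2D6 member of a cytochrome P450 panel assay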
[6] = HEK-293T cell viability reduction – luminescence, B-cell screen hits, cytotoxicity control for BCR NF-kB inhibitor project, dose response (AID 489021); type: functional, cell-based;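 note: HEK-293T cells carrying an NF-kB luciferase reporter; cells exposed to compound for about 14 hours before viability readout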
[7] = target: Glyceraldehyde-3-phosphate dehydrogenase (Homo sapiens, UniProt P04406)
[8] = target: T1, Alkaline phosphatase, tissue-nonspecific isozyme (Homo sapiens, UniProt P05186); assay: potency against alkaline phosphatase TNAP – biochemical, luminescent, dose response, SAR follow-up (AID 1056)
T1 sequence (P05186 whole entry): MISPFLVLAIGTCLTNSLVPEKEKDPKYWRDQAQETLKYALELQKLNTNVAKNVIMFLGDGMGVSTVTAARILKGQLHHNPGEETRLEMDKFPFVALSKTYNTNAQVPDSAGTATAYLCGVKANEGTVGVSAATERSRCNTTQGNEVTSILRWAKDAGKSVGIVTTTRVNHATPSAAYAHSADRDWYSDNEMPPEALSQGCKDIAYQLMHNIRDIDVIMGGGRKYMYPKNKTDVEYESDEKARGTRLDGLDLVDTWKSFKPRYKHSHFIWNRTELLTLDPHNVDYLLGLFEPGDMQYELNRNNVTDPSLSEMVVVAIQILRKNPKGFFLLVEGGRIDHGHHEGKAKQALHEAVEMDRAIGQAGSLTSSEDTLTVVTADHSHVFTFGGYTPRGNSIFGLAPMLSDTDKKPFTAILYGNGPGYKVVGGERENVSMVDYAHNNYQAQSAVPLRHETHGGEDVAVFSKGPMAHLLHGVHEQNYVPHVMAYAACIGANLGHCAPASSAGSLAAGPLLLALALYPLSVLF

[9] = HepG2 cell cytotoxicity, dose response, cytotoxicity control for non-replicating M. tuberculosis project (AID 489018); type: functional; conditions: Mycobacterium tuberculosis
Streptococcus = assay: GAS UMAA2166 growth inhibition – luminescence, BacTiterGlo, counter-screen for streptokinase expression inhibitor project, dose response (AID 1915); type: functional, organism-based;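 note: potency for reduction of bacterial viability or growth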
[10] = THP-1 cell cytotoxicity, dose response, cytotoxicity control for non-replicating M. tuberculosis project (AID 489025); type: functional
[11] = tested on: Streptococcus sp. 'group A'; assay: Streptococcus pyogenes SK(-)GAS viability under kanamycin – luminescence, BacTiterGlo, confirmation, counter-screen for streptokinase expression inhibitor project, dose response (AID 1900); type: functional, organism-based
[12] = Vero E6 cell cytotoxicity, dose response, cytotoxicity control for non-replicating M. tuberculosis project, secondary assay (AID 492998); type: functional, VeroE6; conditions: Vero C1008
cells = type: functional

Glyceraldehyde-3-phosphate dehydrogenase, sequence (P04406 whole entry): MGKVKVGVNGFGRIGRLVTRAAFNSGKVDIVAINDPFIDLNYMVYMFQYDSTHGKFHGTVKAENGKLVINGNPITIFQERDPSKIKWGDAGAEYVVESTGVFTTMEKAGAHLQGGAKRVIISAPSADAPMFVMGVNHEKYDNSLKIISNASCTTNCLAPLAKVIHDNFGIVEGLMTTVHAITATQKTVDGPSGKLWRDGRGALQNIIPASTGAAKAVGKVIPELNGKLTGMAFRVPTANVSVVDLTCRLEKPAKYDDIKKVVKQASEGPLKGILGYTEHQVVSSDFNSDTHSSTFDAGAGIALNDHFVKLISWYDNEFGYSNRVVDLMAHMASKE
Cytochrome P450 2C19, sequence (P33261 whole entry): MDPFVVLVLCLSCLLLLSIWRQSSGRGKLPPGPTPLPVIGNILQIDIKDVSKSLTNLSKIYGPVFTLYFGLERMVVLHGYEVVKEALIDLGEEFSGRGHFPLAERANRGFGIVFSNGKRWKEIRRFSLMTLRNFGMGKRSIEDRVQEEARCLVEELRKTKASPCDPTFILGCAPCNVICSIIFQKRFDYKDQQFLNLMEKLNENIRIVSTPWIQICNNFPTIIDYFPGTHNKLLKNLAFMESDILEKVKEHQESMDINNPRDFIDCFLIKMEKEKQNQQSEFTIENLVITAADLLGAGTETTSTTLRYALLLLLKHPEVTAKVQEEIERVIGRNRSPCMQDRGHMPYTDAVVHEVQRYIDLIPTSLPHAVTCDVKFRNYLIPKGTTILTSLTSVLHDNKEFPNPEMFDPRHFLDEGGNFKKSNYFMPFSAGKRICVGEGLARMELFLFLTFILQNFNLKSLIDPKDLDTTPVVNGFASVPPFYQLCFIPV
Cytochrome P450 2D6, sequence (P10635 whole entry): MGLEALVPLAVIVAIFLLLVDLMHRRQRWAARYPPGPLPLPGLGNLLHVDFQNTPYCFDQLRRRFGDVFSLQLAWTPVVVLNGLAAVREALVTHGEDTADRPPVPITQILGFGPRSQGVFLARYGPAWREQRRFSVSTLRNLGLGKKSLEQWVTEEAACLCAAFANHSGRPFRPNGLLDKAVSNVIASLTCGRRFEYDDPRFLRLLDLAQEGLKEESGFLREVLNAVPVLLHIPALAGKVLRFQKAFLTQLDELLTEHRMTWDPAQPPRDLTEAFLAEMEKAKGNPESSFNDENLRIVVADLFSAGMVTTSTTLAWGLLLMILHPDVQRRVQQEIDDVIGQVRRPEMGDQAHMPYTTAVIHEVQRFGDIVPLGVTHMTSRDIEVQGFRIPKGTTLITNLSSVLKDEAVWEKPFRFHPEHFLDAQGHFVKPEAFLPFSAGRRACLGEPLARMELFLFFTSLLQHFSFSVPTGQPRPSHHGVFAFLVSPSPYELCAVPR
Voltage-dependent T-type calcium channel subunit alpha-1H, sequence (O95180 whole entry): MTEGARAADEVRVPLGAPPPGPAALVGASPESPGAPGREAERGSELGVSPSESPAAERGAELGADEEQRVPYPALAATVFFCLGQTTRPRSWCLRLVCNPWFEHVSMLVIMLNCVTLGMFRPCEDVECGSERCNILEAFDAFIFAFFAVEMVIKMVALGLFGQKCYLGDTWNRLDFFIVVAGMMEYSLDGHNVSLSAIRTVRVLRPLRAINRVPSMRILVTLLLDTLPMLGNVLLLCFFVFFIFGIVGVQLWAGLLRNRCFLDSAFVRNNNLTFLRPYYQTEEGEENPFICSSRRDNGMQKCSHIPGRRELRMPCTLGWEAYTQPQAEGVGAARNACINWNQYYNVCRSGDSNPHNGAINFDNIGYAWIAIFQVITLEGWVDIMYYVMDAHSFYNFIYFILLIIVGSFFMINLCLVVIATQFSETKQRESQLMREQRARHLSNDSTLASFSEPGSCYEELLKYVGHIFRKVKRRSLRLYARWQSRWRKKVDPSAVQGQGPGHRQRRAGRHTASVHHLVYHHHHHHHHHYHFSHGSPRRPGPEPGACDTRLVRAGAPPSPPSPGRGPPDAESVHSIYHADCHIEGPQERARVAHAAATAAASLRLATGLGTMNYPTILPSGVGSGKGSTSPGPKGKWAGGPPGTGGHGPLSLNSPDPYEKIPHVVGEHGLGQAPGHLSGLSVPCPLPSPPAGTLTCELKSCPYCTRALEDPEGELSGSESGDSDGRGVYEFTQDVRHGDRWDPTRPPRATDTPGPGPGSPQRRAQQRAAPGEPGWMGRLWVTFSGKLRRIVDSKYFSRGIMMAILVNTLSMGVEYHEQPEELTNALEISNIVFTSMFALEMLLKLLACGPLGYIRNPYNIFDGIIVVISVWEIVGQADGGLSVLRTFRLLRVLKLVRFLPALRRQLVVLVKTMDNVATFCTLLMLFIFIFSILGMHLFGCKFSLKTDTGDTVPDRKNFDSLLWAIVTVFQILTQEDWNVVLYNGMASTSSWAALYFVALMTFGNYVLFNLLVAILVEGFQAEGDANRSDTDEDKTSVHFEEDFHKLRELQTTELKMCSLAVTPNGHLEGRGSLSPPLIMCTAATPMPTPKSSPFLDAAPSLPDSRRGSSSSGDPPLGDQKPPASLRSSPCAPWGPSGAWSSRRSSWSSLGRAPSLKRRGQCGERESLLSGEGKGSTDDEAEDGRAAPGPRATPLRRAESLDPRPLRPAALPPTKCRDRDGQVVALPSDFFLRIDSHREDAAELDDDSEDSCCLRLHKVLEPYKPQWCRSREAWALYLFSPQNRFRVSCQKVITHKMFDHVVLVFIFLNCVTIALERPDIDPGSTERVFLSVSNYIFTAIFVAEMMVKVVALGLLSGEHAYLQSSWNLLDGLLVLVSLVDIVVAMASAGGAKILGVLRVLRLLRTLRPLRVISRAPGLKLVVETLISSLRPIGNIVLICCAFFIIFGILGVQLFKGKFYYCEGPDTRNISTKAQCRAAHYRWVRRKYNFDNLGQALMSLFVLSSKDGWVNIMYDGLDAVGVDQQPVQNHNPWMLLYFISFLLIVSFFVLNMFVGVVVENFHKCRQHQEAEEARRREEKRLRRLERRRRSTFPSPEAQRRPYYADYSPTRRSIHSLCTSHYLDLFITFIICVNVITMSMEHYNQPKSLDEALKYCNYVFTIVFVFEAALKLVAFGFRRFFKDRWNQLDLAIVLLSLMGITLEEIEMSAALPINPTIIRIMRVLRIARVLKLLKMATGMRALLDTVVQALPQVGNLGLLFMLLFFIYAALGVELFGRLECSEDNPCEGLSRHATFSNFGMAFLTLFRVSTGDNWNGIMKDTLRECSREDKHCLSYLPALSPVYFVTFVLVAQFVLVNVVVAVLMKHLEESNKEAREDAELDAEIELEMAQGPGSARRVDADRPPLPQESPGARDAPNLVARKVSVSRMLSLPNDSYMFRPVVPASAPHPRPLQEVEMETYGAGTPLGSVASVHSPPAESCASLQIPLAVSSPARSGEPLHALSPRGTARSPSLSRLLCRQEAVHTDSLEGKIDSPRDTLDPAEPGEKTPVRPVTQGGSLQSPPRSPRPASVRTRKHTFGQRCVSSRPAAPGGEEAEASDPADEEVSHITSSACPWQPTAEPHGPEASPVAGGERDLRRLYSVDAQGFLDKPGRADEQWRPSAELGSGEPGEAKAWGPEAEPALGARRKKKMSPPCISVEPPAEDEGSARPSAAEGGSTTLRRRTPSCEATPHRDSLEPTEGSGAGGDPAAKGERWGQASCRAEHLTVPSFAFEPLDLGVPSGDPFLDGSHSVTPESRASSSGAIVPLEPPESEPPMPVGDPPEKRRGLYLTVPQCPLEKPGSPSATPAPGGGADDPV

Q: For `COc1ccc(-c2csc(NC(=O)c3cccc(Cl)c3)n2)cc1`, which CC50 (Vero) is on record?
A: > 40 µM (active)

Q: For `CCC(C)(C)n1nnnc1C(c1ccc(C)cc1)N(Cc1ccco1)Cc1cccs1` (stereo not given), which EC50 [1] is on record?
A: 2.86 µM (active)

Q: What about the EC50 [2] of the same compound?
A: > 60 µM (not active)

Q: And the EC50 (HEK293 [3])?
A: > 59.6 µM (inactive)

Q: And the EC50 [4]?
A: 6.74 µM (active)

Q: What about the EC50 (HEK293 [5]) of the same compound?
A: > 59.6 µM (inactive)

Q: What does the source list for `CCCNC(=O)c1cc2c(C(F)(F)F)nn(C)c2s1`?
A: AC50 (Cytochrome P450 2C19): 31.6 µM (inconclusive); AC50 (Cytochrome P450 2D6): inconclusive

Q: For `O=C(NCCCN1CCOCC1)c1cc(-c2ccc(Br)cc2)on1`, which IC50 [6] is on record?
A: > 80 µM (inactive)

Q: With `O=C(CSc1nc2ccccc2c(=O)n1-c1ccc(F)cc1)Nc1ccc2c(c1)OCCO2` as the compound, how does the CC50 (Vero) read?
A: > 40 µM (active)

Q: Which results are given for `O=S(=O)(Nc1cnc2ccccc2c1)c1cc(Cl)ccc1F`?
A: IC50 [7]: > 100 µM (not active); IC50 [8]: 4.26 µM (active)

Q: With `CN(c1ccccc1)S(=O)(=O)c1ccc(C(=O)Nc2nnc(-c3ccc(F)cc3)o2)cc1` as the compound, how does the CC50 [9] read?
A: 15.6 µM (active)

Q: And the EC50 (Streptococcus)?
A: 2.93 µM (active)

Q: What about the CC50 [10] of the same compound?
A: 17.2 µM (active)

Q: And the EC50 [11]?
A: 0.159 µM (active)

Q: What about the CC50 [12] of the same compound?
A: 7.81 µM (active)

Q: What about the IC50 (cells) of the same compound?
A: > 50 µM (active)

Q: With `Cc1ccc(S(=O)(=O)Nc2cnc3ccccc3c2)c(C)c1C` as the compound, how does the IC50 [7] read?
A: > 100 µM (not active)

Q: What about the IC50 [8] of the same compound?
A: > 100 µM (inactive)
